The subject of data set [1] is HT29 (colorectal carcinoma). The data set can be described thus: SRB cytotoxicity assay, HT29. It is filed as cell-based, human. To be noted: read-out: Cytotoxicity (EC50) HT29. As to the method: (§1) Sulforhodamine (SRB) assays were performed to evaluate the cytotoxicity of the compounds. First, the cytotoxicity of the different rhodamines was determined; the results of these assays are compiled in Table 1 and Table 2 and depicted in Figure 1.
(§2) Experimental equipment: as previously described biological assays were performed as previously reported employing cell lines obtained from the Department of Oncology [Martin-Luther-University Halle Wittenberg; they were bought from ATCC [2, 4, 7]]. Rhodamine 101 B, as well as asiatic acid, were obtained from local vendors and used as received.
(§3) For the SRB assay and staining experiments: as previously described.

For data set [2], the system named is human tumor cell lines and non-malignant fibroblasts (NIH 3T3). As to the kind of experiment: SRB cytotoxicity assay, several cell lines stated together. It is filed as cell-based. To be noted: all human tumor cell lines and non-malignant fibroblasts (NIH 3T3), limits of the assay. The protocol:
as §1, §2, §3
In general terms: In SRB staining, fixed cells bind dye roughly in proportion to their protein.

Data set [3] can be described thus: SRB cytotoxicity assay, NIH 3T3. It is filed as cell-based, murine. To be noted: mouse, NIH 3T3 non-malignant fibroblasts, Table 1, 72 h of treatment, cut-off 30 μM. As to the method: as §1, §2, §3
Data set [4] deals with MCF7 (breast adenocarcinoma). As to the kind of experiment: SRB cytotoxicity assay, MCF7. The class given is cell-based, human. To be noted: read-out: Cytotoxicity (EC50) MCF7. As to the method:
as §1, §2, §3

For data set [5], the system named is A375 (melanoma). The data set can be described thus: SRB cytotoxicity assay, A375. To be noted: read-out: Cytotoxicity (EC50) A375. It is filed as cell-based, human. The protocol: as §1, §2, §3
Data set [6] relates to HeLa (cervical adenocarcinoma). As to the kind of experiment: SRB cytotoxicity assay, HeLa. The class given is cell-based, human. Conditions: read-out: Cytotoxicity (EC50) HeLa. The protocol:
as §1, §2, §3

Data set [7] deals with A2780 (ovarian carcinoma). The data set can be described thus: SRB cytotoxicity assay, A2780. To be noted: read-out: Cytotoxicity (EC50) A2780. The class given is cell-based, human. As to the method: as §1, §2, §3
Data set [8] deals with NIH 3T3 (non-malignant fibroblasts, murine). The data set can be described thus: SRB cytotoxicity assay, NIH 3T3. The class given is cell-based. To be noted: Table 1, 72 h of treatment, cut-off 30 μM. As to the method:
as §1, §2, §3

The mark [9] stands for this setting: Table 1, SRB assay, 72 h of treatment, cut-off 30 μM.

Counter-ions that a name gives are not always drawn. Like-named read-outs stand apart in the source and are kept apart here.

The compound `CCCN(CCC)c1ccc2c(-c3ccccc3C(=O)N3CCCN(C(=O)[C@]45CC[C@@H](C)[C@H](C)[C@H]4C4=CC[C@@H]6[C@@]7(C)C[C@@H](OC(C)=O)[C@H](OC(C)=O)[C@@](C)(COC(C)=O)C7CC[C@@]6(C)[C@]4(C)CC5)CCC3)c3ccc(=[N+](CCC)CCC)cc-3oc2c1` (stereo partly drawn) (as salt: chloride) [compound 18, (2α,3β,4α)-9-[2-[{4-(2α,3β,23-Tris(Acetyloxy)-urs-12-en-28-oyl)-1,5-Diazocan-1-Yl]Carbonyl}Phenyl]-3,6-Bis(Dipropylamino)-Xanthylium Chloride] gave a melting point of 207 to 209 °C.
Same read-out and setting: for `CCCCN(CCCC)c1ccc2c(-c3ccccc3C(=O)N3CCCN(C(=O)[C@]45CC[C@@H](C)[C@H](C)[C@H]4C4=CC[C@@H]6[C@@]7(C)C[C@@H](OC(C)=O)[C@H](OC(C)=O)[C@@](C)(COC(C)=O)C7CC[C@@]6(C)[C@]4(C)CC5)CCC3)c3ccc(=[N+](CCCC)CCCC)cc-3oc2c1` (stereo partly drawn) (as salt: chloride) [compound 19, (2α,3β,4α)-9-[2-[{4-(2α,3β,23-Tris(Acetyloxy)-urs-12-en-28-oyl)-1,5-Diazocan-1-Yl]Carbonyl}Phenyl]-3,6-Bis(Dibutylamino)-Xanthylium Chloride] the value was 215 to 218 °C.
Take `CN(C)c1ccc2c(-c3ccccc3C(=O)O)c3ccc(=[N+](C)C)cc-3oc2c1` [Rh1, reference compound]: the EC50 in data set [1] (Homo sapiens, HT-29, 72 h) is greater than 30 µM; in data set [2] (NIH3T3), greater than 30 µM; in data set [4] (Homo sapiens, MCF7, 72 h), greater than 30 µM; in data set [5] (Homo sapiens, A-375, 72 h) it was greater than 30 µM; in data set [6] (Homo sapiens, HeLa, 72 h), greater than 30 µM; in data set [7] (Homo sapiens, A2780, 72 h), greater than 30 µM. Further, the concentration giving a half-maximal response (EC50) at 72 h in data set [3] was greater than 30 µM.
As for rhodamine B [Rh2, reference compound], the EC50 in data set [1] (setting [9]), in [2], in data set [8], in data set [4] (setting [9]), in [5] (setting [9]) and in data set [6] (setting [9]) was greater than 30 µM throughout. In addition, in [7] (setting [9]), the 50% effective concentration (EC50) is greater than 30 µM.

Usually melting point stands for the temperature of the solid-liquid transition. Usually EC50 stands for the midpoint of the concentration-response curve.
